Key:
[1] = target: T1, MmeI (Methylophilus methylotrophus, UniProt B2MU09); experiment: X-ray crystal structure, […] Å (SAD); type: binding; conditions: ternary complex with 29-mer DNA containing TCCGAC; AdoMet site of methyltransferase domain; pH 7.5, 293 K; calcium ions in model
T1 construct: gene mmeIRM; residues 156-906 modelled, endonuclease domain 1-155 disordered; purified as described previously
T1 sequence (B2MU09 1-919): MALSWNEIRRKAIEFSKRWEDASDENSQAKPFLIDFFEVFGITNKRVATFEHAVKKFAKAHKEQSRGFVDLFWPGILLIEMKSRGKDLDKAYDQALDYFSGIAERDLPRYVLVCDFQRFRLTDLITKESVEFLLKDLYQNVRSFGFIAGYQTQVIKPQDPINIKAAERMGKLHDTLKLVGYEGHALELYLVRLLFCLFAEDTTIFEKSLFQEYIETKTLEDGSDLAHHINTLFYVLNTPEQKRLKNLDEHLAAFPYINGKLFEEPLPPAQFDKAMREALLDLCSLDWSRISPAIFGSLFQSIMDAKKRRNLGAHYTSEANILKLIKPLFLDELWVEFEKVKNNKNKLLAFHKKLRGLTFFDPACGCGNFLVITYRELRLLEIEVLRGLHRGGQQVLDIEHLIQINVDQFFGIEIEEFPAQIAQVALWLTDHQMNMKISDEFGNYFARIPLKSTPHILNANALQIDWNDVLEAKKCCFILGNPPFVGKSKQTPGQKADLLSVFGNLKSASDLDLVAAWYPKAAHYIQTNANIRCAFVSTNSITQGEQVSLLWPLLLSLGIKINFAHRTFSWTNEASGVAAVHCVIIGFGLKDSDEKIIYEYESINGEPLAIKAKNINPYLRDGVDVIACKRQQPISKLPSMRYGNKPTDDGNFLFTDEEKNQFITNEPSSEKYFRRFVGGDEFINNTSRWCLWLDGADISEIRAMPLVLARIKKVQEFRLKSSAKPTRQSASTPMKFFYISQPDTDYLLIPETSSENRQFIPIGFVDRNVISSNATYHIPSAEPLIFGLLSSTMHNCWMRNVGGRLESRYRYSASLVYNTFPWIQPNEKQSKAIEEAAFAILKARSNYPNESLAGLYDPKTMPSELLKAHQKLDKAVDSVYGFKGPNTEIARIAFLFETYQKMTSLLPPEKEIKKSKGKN

[2] = target: T2, MmeI (Methylophilus methylotrophus, UniProt B2MU09 1-919); experiment: X-ray crystallography (2.6 A); Sinefungin; Ca2+ in model; Crystallization: 20% PEG 4K, 0.1 M Hepes pH 7.5, 0.1 M (NH4)2SO4, 293 K, with Sinefungin; no solution binding assay; conditions: protein: recombinant; blunt
T2 sequence: T1 sequence (B2MU09 1-919)

`Nc1ncnc2c1ncn2[C@@H]1O[C@H](C[C@@H](N)CC[C@H](N)C(=O)O)[C@@H](O)[C@H]1O` [Sinefungin] was tested, and the “X-ray crystal structure, 2.6 Å (SAD)” value [1] was “The SAM analog Sinefungin is tightly bound within the MTase domain via extensive hydrogen bonding”.

B1: 29-mer MmeI site duplex, 5-bromouracil substituted (dsDNA)
DNA 1: TATCCGACAUAACGCUAGUCACUAGCUUC
DNA 2: GAAGCUAGUGACUAGCGUTAUGTCGGATA
modifications: U = 5-bromouracil (replaces several thymines outside the recognition site) in both strands
B1: binds [2].
